Assay results from ChEMBL document CHEMBL4476867, “Hydroxy formamide derivatives and their use” (2016).

Key:
[1] = target: T1, Bone morphogenetic protein 1 (Homo sapiens, UniProt P13497); test: Inhibition of C-terminal FLAG-6x-His epitope tagged and N-terminal human RAGE signal sequence tagged human BMP1 (23 to 721 amino acids) expressed in CHO-E1 cells pre-incubated for 10 mins before promyostatin peptide substrate addition and measured after 60 mins using 0.5 nM BMP1 by FRET based assay; format: cell-based
T1 sequence (P13497 whole entry): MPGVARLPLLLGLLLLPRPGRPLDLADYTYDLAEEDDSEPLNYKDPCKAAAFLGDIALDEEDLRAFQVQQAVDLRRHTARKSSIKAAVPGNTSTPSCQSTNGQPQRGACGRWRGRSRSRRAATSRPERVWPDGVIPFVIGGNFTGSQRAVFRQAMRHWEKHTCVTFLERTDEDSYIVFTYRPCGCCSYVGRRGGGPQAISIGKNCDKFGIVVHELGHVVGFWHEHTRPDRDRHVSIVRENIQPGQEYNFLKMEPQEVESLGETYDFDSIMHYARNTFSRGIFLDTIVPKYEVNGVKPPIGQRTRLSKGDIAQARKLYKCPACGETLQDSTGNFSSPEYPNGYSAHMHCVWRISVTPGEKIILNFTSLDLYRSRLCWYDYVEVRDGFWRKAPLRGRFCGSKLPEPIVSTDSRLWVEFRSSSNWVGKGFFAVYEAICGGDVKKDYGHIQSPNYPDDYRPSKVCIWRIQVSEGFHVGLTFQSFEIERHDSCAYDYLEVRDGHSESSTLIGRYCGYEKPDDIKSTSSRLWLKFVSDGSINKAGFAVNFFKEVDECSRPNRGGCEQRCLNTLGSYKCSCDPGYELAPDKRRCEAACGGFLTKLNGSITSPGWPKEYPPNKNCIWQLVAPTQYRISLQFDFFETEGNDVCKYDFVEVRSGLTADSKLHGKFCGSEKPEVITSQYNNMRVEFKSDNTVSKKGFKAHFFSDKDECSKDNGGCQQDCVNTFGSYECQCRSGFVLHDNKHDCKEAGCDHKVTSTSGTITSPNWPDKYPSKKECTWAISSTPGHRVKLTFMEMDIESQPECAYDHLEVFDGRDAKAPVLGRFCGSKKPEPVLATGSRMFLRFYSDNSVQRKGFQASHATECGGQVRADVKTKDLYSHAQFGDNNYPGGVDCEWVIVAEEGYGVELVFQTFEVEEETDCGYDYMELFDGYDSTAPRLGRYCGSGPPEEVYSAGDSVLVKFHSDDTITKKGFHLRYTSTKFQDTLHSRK

[2] = target: T1, Bone morphogenetic protein 1; test: Inhibition of C-terminal FLAG-6x-His epitope tagged and N-terminal human RAGE signal sequence tagged human BMP1 (23 to 721 amino acids) expressed in CHO-E1 cells pre-incubated for 10 mins before promyostatin peptide substrate addition and measured after 30 mins using 50 nM BMP1 by FRET based assay; format: cell-based
[3] = target: Tolloid-like protein 1 (Homo sapiens, UniProt O43897, I156V/N221S/V284A); test: Inhibition of recombinant human TLL1 I156V/N221S/V284A mutant expressed in CHOE1A cells pre-incubated for 10 mins before promyostatin peptide substrate addition and measured after 60 mins by FRET based assay; format: cell-based
[4] = target: T2, Tolloid-like protein 2 (Homo sapiens, UniProt Q9Y6L7); test: Inhibition of C-terminal Avi-6x-His epitope tagged and N-terminal human RAGE signal sequence tagged recombinant human TLL2 (26 to 1015 amino acids) expressed in CHOE1A cells incubated for 60 mins with promyostatin peptide substrate by FRET based assay; format: cell-based
T2 sequence (Q9Y6L7 whole entry): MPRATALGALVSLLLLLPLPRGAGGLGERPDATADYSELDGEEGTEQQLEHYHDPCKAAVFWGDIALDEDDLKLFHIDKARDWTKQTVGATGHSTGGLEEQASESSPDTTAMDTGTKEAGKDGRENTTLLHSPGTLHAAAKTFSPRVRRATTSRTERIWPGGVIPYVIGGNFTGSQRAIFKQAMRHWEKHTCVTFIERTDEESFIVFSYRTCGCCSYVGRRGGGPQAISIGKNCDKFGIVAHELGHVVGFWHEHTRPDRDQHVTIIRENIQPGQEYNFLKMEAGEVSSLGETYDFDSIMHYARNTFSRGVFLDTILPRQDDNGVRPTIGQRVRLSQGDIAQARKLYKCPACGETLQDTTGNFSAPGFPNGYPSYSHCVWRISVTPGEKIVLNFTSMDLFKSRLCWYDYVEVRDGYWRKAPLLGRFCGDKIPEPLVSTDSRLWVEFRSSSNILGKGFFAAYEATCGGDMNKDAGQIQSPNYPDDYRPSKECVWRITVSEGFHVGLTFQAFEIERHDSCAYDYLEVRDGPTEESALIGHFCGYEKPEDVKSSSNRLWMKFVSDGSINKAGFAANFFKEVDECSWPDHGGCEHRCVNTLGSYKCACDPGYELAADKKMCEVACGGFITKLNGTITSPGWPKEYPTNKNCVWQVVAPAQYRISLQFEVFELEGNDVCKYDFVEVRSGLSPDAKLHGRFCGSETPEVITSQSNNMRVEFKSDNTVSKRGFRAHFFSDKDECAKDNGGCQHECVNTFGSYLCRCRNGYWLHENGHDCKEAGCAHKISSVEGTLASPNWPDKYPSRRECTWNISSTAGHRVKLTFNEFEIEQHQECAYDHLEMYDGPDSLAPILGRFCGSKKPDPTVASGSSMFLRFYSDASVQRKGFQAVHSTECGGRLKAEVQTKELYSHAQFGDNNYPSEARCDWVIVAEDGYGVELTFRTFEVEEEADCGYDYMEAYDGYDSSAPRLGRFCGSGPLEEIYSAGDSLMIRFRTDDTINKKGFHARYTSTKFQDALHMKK

[5] = Reduction in PICP levels in human cardiac fibroblasts incubated for 24 to 48 hrs by ELISA; format: functional
Summary of the method: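 Human cardiac fibroblasts (passage 6 or below) were seeded at 10,000 to 15,000 cells per well in 96-well plates. The next day they were treated in ficoll crowding EMEM with 100 μM ascorbic acid and under 0.3% DMSO, for 24 to 48 hr at 37° C. Procollagen I C-terminal propeptide in the medium was measured with a Quidel ELISA. IC50 came from fitting levels relative to untreated controls to a log(inhibitor)-response equation in GraphPad Prism.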

Sequence of Tolloid-like protein 1 (O43897 148-1013 I156V/N221S/V284A limits assumed): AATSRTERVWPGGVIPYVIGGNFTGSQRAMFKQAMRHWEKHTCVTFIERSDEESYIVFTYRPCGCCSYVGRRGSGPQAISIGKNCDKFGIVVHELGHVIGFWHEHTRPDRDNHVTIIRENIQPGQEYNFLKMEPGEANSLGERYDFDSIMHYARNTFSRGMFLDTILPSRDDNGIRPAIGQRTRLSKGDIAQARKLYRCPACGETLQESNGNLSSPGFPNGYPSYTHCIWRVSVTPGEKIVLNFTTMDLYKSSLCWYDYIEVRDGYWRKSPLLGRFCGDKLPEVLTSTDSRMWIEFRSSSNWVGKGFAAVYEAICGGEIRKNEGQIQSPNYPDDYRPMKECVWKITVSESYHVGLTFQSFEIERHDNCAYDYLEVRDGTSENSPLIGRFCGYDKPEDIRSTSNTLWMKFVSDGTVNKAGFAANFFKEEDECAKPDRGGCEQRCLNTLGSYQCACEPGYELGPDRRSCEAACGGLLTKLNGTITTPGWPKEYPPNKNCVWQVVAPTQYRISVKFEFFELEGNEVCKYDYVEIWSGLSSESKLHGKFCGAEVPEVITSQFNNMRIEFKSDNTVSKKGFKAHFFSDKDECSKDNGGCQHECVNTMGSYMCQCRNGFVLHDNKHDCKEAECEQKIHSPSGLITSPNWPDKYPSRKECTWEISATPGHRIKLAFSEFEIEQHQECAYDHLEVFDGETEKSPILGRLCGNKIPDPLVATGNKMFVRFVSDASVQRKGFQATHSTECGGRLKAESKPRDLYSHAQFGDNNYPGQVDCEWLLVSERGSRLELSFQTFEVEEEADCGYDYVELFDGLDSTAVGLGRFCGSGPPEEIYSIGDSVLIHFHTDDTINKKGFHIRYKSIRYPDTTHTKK

Row | Compound | IC50 [1] [nM] | IC50 [2] [nM] | IC50 [3] [nM] | IC50 [4] [nM] | IC50 [5] [nM]
1 | CCCCC[C@@H](C(=O)NCNC(=O)c1ccc(-c2ccc(C(=O)O)c(C(=O)O)c2)o1)[C@@H](CC)N(O)C=O | < 126 | < 200 | < 398 | < 794 | < 3980
2 | CCCCC[C@@H](C(=O)NCNC(=O)c1ccc(-c2cc(OCC)cc(C(=O)N[C@@H](CCC(=O)OC)C(=O)OC)c2)o1)[C@@H](CC)N(O)C=O | < 126 | < 200 | < 398 | < 794 | < 3980
3 | CCCCC[C@@H](C(=O)NCNC(=O)c1ccc(-c2ccc(C(=O)N[C@@H](CC(=O)O)C(=O)O)c(C)c2)o1)[C@@H](CC)N(O)C=O | < 126 | < 200 | < 398 | < 794 | < 3980
4 | CCCCC[C@@H](C(=O)NCNC(=O)c1ccc(-c2cc(OCC)cc(C(=O)N[C@H](CC(=O)O)C(=O)O)c2)o1)[C@@H](CC)N(O)C=O | < 126 | < 200 | < 398 | < 794 | < 3980
5 | CCCCC[C@H](CN(O)C=O)C(=O)NCNC(=O)c1ccc(-c2cc(OCC)cc(C(=O)O)c2)o1 | < 126 | < 200 | < 398 | < 794 | < 3980
6 | CCOc1cc(-c2ccc(C(=O)NCNC(=O)[C@H](CCc3ccccc3)[C@@H](CC)N(O)C=O)o2)cc(P(=O)(O)O)c1 | < 126 | < 200 | < 398 | < 794 | < 3980
7 | CCCCC[C@H](CN(O)C=O)C(=O)NCNC(=O)c1ccc(-c2cccc(P(C)(=O)O)c2)o1 | < 126 | < 200 | < 398 | < 794 | < 3980
8 | CCCCC[C@@H](C(=O)NCNC(=O)c1ccc(-c2cc(OCC)cc(C(=O)NCCN)c2)o1)[C@@H](CC)N(O)C=O | < 126 | < 200 | < 398 | < 794 | < 3980
9 | CCCCC[C@@H](C(=O)NCNC(=O)c1ccc(-c2cc(OCC)cc(P(=O)(OC)OC)c2)o1)[C@@H](CC)N(O)C=O | < 126 | < 200 | < 398 | < 794 | < 3980
10 | CCOc1cc(-c2ccc(C(=O)NCNC(=O)[C@H](CCc3ccc4ccccc4c3)[C@@H](CC)N(O)C=O)o2)ccc1C(=O)N[C@@H](CC(=O)O)C(=O)O | < 126 | < 200 | < 398 | < 794 | < 3980
11 | CCCCC[C@@H](C(=O)NCNC(=O)c1ccc(-c2cc(O)cc(P(=O)(O)O)c2)o1)[C@@H](CC)N(O)C=O | < 126 | < 200 | < 398 | < 794 | < 3980
12 | CCCCC[C@H](CN(O)C=O)C(=O)NCNC(=O)c1ccc(-c2cccc(CC(=O)O)c2)o1 | < 126 | < 200 | < 398 | < 794 | < 3980
13 | CCOc1cc(-c2ccc(C(=O)NCNC(=O)[C@H](CCc3ccc4ccccc4c3)[C@@H](CC)N(O)C=O)o2)cc(P(=O)(O)O)c1 | < 126 | < 200 |  |  | < 3980
14 | CCCCC[C@H](CN(O)C=O)C(=O)NCNC(=O)c1ccc(-c2cc(OC)ccn2)o1 | < 126 | < 200 | < 398 | < 794 | < 3980
15 | CCCCC[C@H](CN(O)C=O)C(=O)NCNC(=O)c1ccc(-c2cccc(C(=O)O)c2C)o1 | < 126 | < 200 | < 398 | < 794 | < 3980
16 | CCCCC[C@@H](C(=O)NCNC(=O)c1ccc(-c2cc(CN(C)CC(=O)O)cc(OCC)c2)o1)[C@@H](CC)N(O)C=O | < 126 | < 200 | < 398 | < 794 | < 3980
17 | CCCCC[C@H](CN(O)C=O)C(=O)NCNC(=O)c1ccc(-c2cccc(SCC)c2)o1 | < 126 | < 200 | < 398 | < 794 | < 3980
18 | CCCCC[C@H](CN(O)C=O)C(=O)NCNC(=O)c1ccc(-c2ccc(N)c(C(=O)O)c2)o1 | < 126 | < 200 | < 398 | < 794 | < 3980
19 | CCCCC[C@H](CN(O)C=O)C(=O)NCNC(=O)c1ccc(-c2cccc(P(=O)(O)O)c2)o1 | < 126 | < 200 | < 398 | < 794 | < 3980
20 | CCCCC[C@@H](C(=O)NCNC(=O)c1ccc(-c2cc(CC(=O)O)cc(OCC)c2)o1)[C@@H](CC)N(O)C=O | < 126 | < 200 |  |  | < 3980
21 | CCCCC[C@@H](C(=O)NCNC(=O)c1ccc(-c2cc(OCC)cc(C(=O)N[C@@H](CCC(=O)O)C(=O)OC(C)(C)C)c2)o1)[C@@H](CC)N(O)C=O | < 126 | < 200 | < 398 | < 794 | < 3980
22 | CCCCC[C@H](CN(O)C=O)C(=O)NCNC(=O)c1ccc(-c2cccc(OC(C)C)c2)o1 | < 126 | < 200 | < 398 |  | < 3980
23 | CCCCC[C@H](CN(O)C=O)C(=O)NCNC(=O)c1ccc(-c2cccc(C(=O)O)c2F)o1 | < 126 | < 200 | < 398 | < 794 | < 3980
24 | CCCCC[C@H](CN(O)C=O)C(=O)NCNC(=O)c1ccc(-c2ccc(C(=O)O)cc2)o1 | < 126 | < 200 | < 398 | < 794 | < 3980
25 | CCCCC[C@@H](C(=O)NCNC(=O)c1ccc(-c2ccc(C(=O)O)cc2)o1)[C@@H](CC)N(O)C=O | < 126 | < 200 | < 398 | < 794 | < 3980
26 | CCCCC[C@@H](C(=O)NCNC(=O)c1ccc(-c2cc(OCC)cc(C(=O)NCC(=O)O)c2)o1)[C@@H](CC)N(O)C=O | < 126 | < 200 |  |  | < 3980
27 | CCCCC[C@H](CN(O)C=O)C(=O)NCNC(=O)c1ccc(-c2cc(OCC)cc(C(=O)NCCN)c2)o1 | < 126 | < 200 |  |  | < 3980
